Numbers after ± are expanded uncertainties.
Settings: 101.33 kPa, Liquid

CCCC[N+]1(C)CCCC1.N#CN=C=[N-] [1-butyl-1-methylpyrrolidinium dicyanamide]
Settings	mass density [kg/m3]
283.15 K	1021.93 ± 0.57
293.15 K	1016.26 ± 0.55
303.15 K	1010.64 ± 0.53
313.15 K	1005.08 ± 0.51
323.15 K	999.56 ± 0.5
333.15 K	994.1 ± 0.51
343.15 K	988.69 ± 0.53

— the NIST ThermoML archive (doi:10.1021/je200822w)
